# Experimental data as given in publication PMC8952214 (Pharmaceuticals, 2022).
# Where two headings read alike, the source gives them in different places.
# Legend:
# [1] = tested on: A/Parma/24/09 H1N1 (Brisbane-like) oseltamivir-resistant virus; assay type: biochemical, Influenza A virus; details: Table 2; turkey erythrocytes; dash = not active
# [2] = tested on: A/Parma/24/09 H1N1 (Brisbane-like) oseltamivir-resistant virus; test: microbe, parasite or virus in culture; assay type: cell-based, Influenza A virus; details: for EC50: Influenza A virus, H1N1, MDCK, 48 h, read-out: EC50 A/Parma H1N1
# [3] = tested on: A/Parma/24/09 H1N1 (Brisbane-like) oseltamivir-resistant virus; details: Table 1; turkey erythrocytes; cited from earlier work
# [4] = tested on: A/Parma/24/09 H1N1 (Brisbane-like) oseltamivir-resistant virus; details: MDCK cells, c.p.e. by neutral red, 48 h; cited from earlier work
SMILES,HI Titer A/Parma H1N1 [1],also measured
CC(=O)Nc1ccc(S(=O)(=O)NC(C)c2ccc(-n3ccnc3)cc2)cc1 (stereo not shown) [Compound 16],0.012 pM,–
COc1ccc(NC(=O)COC(=O)c2ccc3c(c2)CCC(=O)N3)cc1 [Compound 19],0.012 pM,–
Cc1ccc(NC(=O)COC(=O)c2ccccn2)cc1F [Compound 13],0.012 pM,"SI (selectivity index) = CC50/EC50, A/Parma H1N1 [2]: 0.44 × 10^2; EC50 [2]: 700 nM"
O=C(CC1(O)C(=O)Nc2ccccc21)c1ccccn1 (stereo not shown) [Compound 6],0.012 pM,"SI (selectivity index) = CC50/EC50, A/Parma H1N1 [2]: 0.34 × 10^2; EC50 [2]: 900 nM"
Nc1cc(F)ccc1C(=O)OCC(=O)Nc1ccccc1 [Compound 18],0.012 pM,–
Cc1ccc(F)cc1NC(=O)COC(=O)c1ccc2ccccc2n1 [Compound 4],–,HI Titer A/Parma H1N1 [3]: 0.48 µM; EC50 [4]: 125 nM
O=C(COC(=O)c1ccc2ccccc2n1)Nc1ccccc1-c1ccccc1 [Compound 12],0.012 pM,–
N#Cc1ccc(NC(=O)COC(=O)c2ccccn2)cc1 [Compound 7],0.012 pM,"SI (selectivity index) = CC50/EC50, A/Parma H1N1 [2]: 0.34 × 10^2; EC50 [2]: 900 nM"
O=C1CCCN1c1ccc(CNS(=O)(=O)c2ccc(F)cc2)cc1 [Compound 23],0.012 pM,–
CCc1ccc(NC(=O)C(C)OC(=O)c2ccc3ccccc3n2)cc1 (stereo not shown) [Compound 10],0.012 pM,–
O=C(OCC(=O)N1CCc2ccccc21)c1ccccn1 [Compound 8],0.012 pM,–
O=C(COC(=O)c1ccccn1)Nc1ccc2c(c1)CCC2 [Compound 24],0.047 pM,–
O=C(COC(=O)c1ccc2ccccc2n1)Nc1ccc2c(c1)OCCO2 [Compound 11],0.012 pM,–
Fc1ccc(CNc2ncnc3[nH]cnc23)cc1 [Compound 2],–,HI Titer A/Parma H1N1 [3]: 0.48 µM
Cc1ccc(S(=O)(=O)NC(C)c2ccc(-n3ccnc3)cc2)cc1C (stereo not shown) [Compound 1],–,HI Titer A/Parma H1N1 [3]: 0.48 µM; EC50 [4]: 125 nM
CN(C(=O)COC(=O)c1ccc2ccccc2n1)c1ccccc1 [Compound 9],0.012 pM,–
Cc1ccc(S(=O)(=O)Nc2ccc(-n3ccnc3)c(Cl)c2)cc1 [Compound 28],0.047 pM,–
Cc1nc(-c2cccc(NC(=O)COC(=O)c3ccc4ccccc4n3)c2)cs1 [Compound 26],0.047 pM,–
COc1ccc(S(=O)(=O)NCc2ccc(-n3ccnc3)cc2)cc1F [Compound 25],0.012 pM,"SI (selectivity index) = CC50/EC50, A/Parma H1N1 [2]: 0.44 × 10^2; EC50 [2]: 700 nM"
CC(NS(=O)(=O)c1ccccc1)c1ccc(-c2ccccc2)cc1 (stereo not shown) [Compound 17],0.012 pM,–
Cc1ccc2nc(CNc3ccc(C)c(Cl)c3)cc(=O)n2c1 [Compound 5],–,HI Titer A/Parma H1N1 [3]: 0.48 µM
COc1ccc(C(=O)Nc2cccc(S(=O)(=O)NCc3ccco3)c2)cc1 [Compound 3],–,HI Titer A/Parma H1N1 [3]: 0.48 µM
O=C(OCC(=O)N(c1ccccc1)C1CCCCC1)c1ccc2ccccc2n1 [Compound 14],0.012 pM,–
O=C(COC(=O)c1ccccn1)Nc1ccc(-c2ccccc2)cc1 [Compound 20],0.012 pM,–
